Each structure is given as a SMILES string. A value given as a limit tells only on which side of the number the result lay.

Regarding `COc1ccc([C@H]2N[C@H](c3ccc4c(c3)OCO4)c3ccccc32)cc1` (racemic), the melting point (usually the temperature, or range, at which the solid turns liquid) lay within 123 to 125 °C.

In turn, `CC(=O)O[C@H](CC(=O)c1ccccc1)C(=O)O` yielded a melting point of 118 to 121 °C.

`c1ccc(-c2ccc3c(ccc4c5ccccc5[nH]c34)c2)cc1`: the melting point was found to be 254 °C.

The molecule `O=C(O)CCc1ccc2c(c1)CCc1ccc(C(=O)O)cc1S2` showed a melting point of 233 to 235 °C.

The molecule `O=C(NC(CO)CNS(=O)(=O)c1ccc(Oc2ccccc2)cc1)OCc1ccccc1` (centres undefined) yielded a melting point of 86 to 89 °C.

With `COc1cc(Nc2c(C#N)cnc3cc(I)sc23)c(Cl)cc1Cl`, the melting point lay within 233 to 234 °C.

As to `O=C(CO/N=C(\C(=O)O)c1ccco1)NOC(c1ccccc1)c1ccccc1`, the melting point fell in the range of 138 to 140 °C.

The molecule `Cc1ccc(S(=O)(=O)OCC2Cc3cccc(-c4cc(C(F)(F)F)cc(C(F)(F)F)c4)c3O2)cc1` (centres undefined) had a melting point of 100 to 105 °C.

As to `Cc1nc(-c2ccc(OC(C)C)c([N+](=O)[O-])c2)sc1C(=O)OC(C)C`, the melting point fell in the range of 91 to 92 °C.

For the molecule `CCCc1nc(N2CCc3ccccc3CC2)c(C#N)c(=O)[nH]1`, the melting point is 191 to 193 °C.

Molecule `CNC(=O)N(OC(=O)OC)c1ccc(Cl)cc1` gave a melting point of 145 to 146 °C.

Turning to `O=C1[C@H]2CCC[C@H]2N(C(=O)CBr)c2ccccc2N1Cc1ccccc1F` (relative stereo), the melting point is 198 to 200 °C.

`C1=C(c2ccc3ccccc3c2)CCN(Cc2n[nH]c3ccccc23)C1` gave a melting point of 225 to 227 °C.

`N#Cc1ccccc1-c1cccc(Cc2ccc(OCc3ccccc3)cc2)c1Nn1cnnc1` had a melting point of 171 to 173 °C.

`CC(=O)N1CCC(c2nc(-c3ccncc3)c(-c3ccc(F)cc3)[nH]2)CC1` had a melting point of 235 to 236 °C.

On to `COCCOc1cc(-c2ccccn2)nc(-c2ccccn2)c1`, for which the melting point was in the range of 105 to 106 °C.

`CC(=O)NCc1cc(C(C)=O)ccc1Cl` gave a melting point of 93.1 to 93.7 °C.

`COc1ccc(-c2nc3sccn3c2/C=C/C(=O)c2ccc[nH]2)cc1` registered a melting point of 177 to 179 °C.

Take `Cc1ccsc1C(C)N(O)C(N)=O` (centres undefined): the melting point worked out at 131 °C.

The molecule `CC(C)OCCNC(=O)c1n[nH]cc1NC(=O)c1ccccc1` had a melting point of 121 to 122 °C.

In turn, `CCc1nc(N)nc(N)c1CCC(C)c1cccc(C(F)(F)F)c1` (centres undefined) came in with a melting point of 93 to 96 °C.

The molecule `CN1CCC[C@@H]1Cc1c[nH]c2ccc(C=CC(C)(C)O)cc12` came in with a melting point of 155 to 158 °C.

Regarding `CC(=O)N1CCC(C(=O)c2ccc(Cl)c(Cl)c2)CC1`, the melting point lay within 134 to 136 °C.

On to `N#Cc1ccc2[nH]cc(-c3nc(-c4cccnc4)cs3)c2c1`, for which the melting point was found to be 240 °C.

Molecule `O=C(Nc1ccc(-c2ncon2)cc1)OCC(Cl)(Cl)Cl` returned a melting point of 108 to 110 °C.

`N#CC1c2ccccc2CSc2ccccc21` (centres undefined) yielded a melting point of 128 to 130 °C.

On to `CNC(=O)c1ccc(C)c(-c2nc(S(C)(=O)=O)nc3c2CNC(=O)N3c2c(F)cccc2F)c1`, for which the melting point is 275 to 278 °C.

As to `CS(=O)N1CCSc2cccc(Cl)c2C1` (centres undefined), the melting point was in the range of 82 to 84 °C.

With `CCOc1nc(N)nc2c1CCC2`, the melting point lay within 134 to 135 °C.

Consider `Cc1c(C(=O)CBr)ccn1S(=O)(=O)c1ccccc1`, for which the melting point was 108 to 110 °C.

`Nc1nc(Nc2ccccc2)sc1C(=O)c1c(Cl)cccc1Cl` showed a melting point of 245 to 246 °C.

Turning to `FC(F)(F)c1ccc(/C=C/c2nc(COc3ccc(-c4nc(Cn5ccnn5)co4)cc3)cs2)cc1`, the melting point lay within 179 to 181 °C.

With `S=C(Nc1cccc(Cl)c1)N1CCOC1C1CCCCC1` (centres undefined), the melting point is 117 to 119 °C.

The molecule `CSc1sc(NC(=O)OC(C)(C)C)c(NC(=O)OC(C)(C)C)c1C#N` displayed a melting point of 156 to 157 °C.

In turn, `COc1ccc(NC(=O)/C=C/c2c(OC)cc(OC)cc2OC)cc1` gave a melting point of 198 to 200 °C.

For `CCCS(=S)c1cccc(OS(C)(=O)=O)n1` (centres undefined), the melting point fell in the range of 51 to 53 °C.

`CCCCn1c(=O)c2c(nc(C)n2S(=O)(=O)CCCCl)n(CCCC)c1=O` yielded a melting point of 76 to 78 °C.

On to `CCCC(NC(C)C(=O)N1C(C(=O)O)CC2CCCCC21)C(=O)OCC` (centres undefined), for which the melting point was 86 to 92 °C.

Molecule `O=C1CC2CC(O)(c3ccccc3)CC2C1` (centres undefined) returned a melting point of 158 to 159 °C.

`Cc1ccc(NC(=O)Nc2cccc(Oc3ccc4nc(COc5ccc(CC6SC(=O)NC6=O)cc5)n(C)c4c3)c2)cc1` (centres undefined) displayed a melting point of 173 to 175 °C.

In the case of `CCc1nn2c(Cl)cc(Cl)nc2c1S(=O)(=O)c1ccccc1`, the melting point lay in the range of 166 to 167 °C.

For `OCCN(Cc1ccccc1)c1nc2ccccc2s1`, the melting point is 95 to 96 °C.

Molecule `CC(C)(COCc1cccc(Oc2ccccc2)c1)c1ccc(O)cc1` gave a melting point of 69.2 to 70 °C.

The molecule `Cc1cc(-c2nnc3c4ccccc4c(OCc4ncn(C)n4)nn23)on1` returned a melting point of 270 to 272 °C.

Molecule `CC(C)(C)c1cc(C(=O)c2ccoc2)cc2c1OCC2(C)C` had a melting point of 120 to 121 °C.

In turn, `CCOC(=O)CNC(=O)Nc1ccc2oc3c(OC)ccc(C(=O)Nc4c(Cl)cncc4Cl)c3c2c1` displayed a melting point above 250 °C.

As to `O=C1Nc2ccccc2N(C(=O)Cl)c2c1csc2Cl`, the melting point was in the range of 158 to 161 °C.

In the case of `COc1cc2sc(=O)n(C(C)=O)c2cc1OC`, the melting point is 164 to 165 °C.

With `COc1ccc2cc(C(=O)CNC(=O)c3cn(Cc4ccccc4)c4ccccc34)ccc2c1`, the melting point was in the range of 177 to 179 °C.

Regarding `O=c1cc(-c2ccncn2)nc2n1CCOCC2Br` (racemic), the melting point is 176 to 178 °C.

With `Cc1cccc(N2CCOC2=O)c1CNc1cccn2c(Cl)c(C)nc12`, the melting point is 137 to 139 °C.

As to `Cc1cc(C)nc(NC(=N)Nc2ccccc2C(F)(F)F)n1`, the melting point lay in the range of 161 to 162 °C.

`CCc1ccc(CCc2ccc(-c3ccc(OC(F)F)cc3)cc2)cc1`: the melting point is 131 °C.

Turning to `CCCOc1ccc(CO)nc1OCc1ccccc1`, the melting point was in the range of 50 to 51 °C.

Molecule `CCCOc1c(OCCCN2C(=O)c3ccccc3C2=O)cc(C2CCC(c3cc(OC)c(OC)c(OC)c3)O2)cc1S(=O)(=O)CCC` (centres undefined) registered a melting point of 195 to 196 °C.

As for `Cc1nc[nH]c1CSCCNc1nc(C)c(Cc2ccccc2)c(=O)[nH]1`, the melting point was 140 to 142 °C.

`COC(=O)c1sccc1Nc1ccc(Cl)cc1[N+](=O)[O-]` yielded a melting point of 207 to 208 °C.

`CC1(C)Oc2ccc(C=O)cc2C(N2CCCC2=O)C1O` (centres undefined): the melting point fell in the range of 196 to 198 °C.

Consider `Cc1cc2c(c(C)n1)c(=O)oc1ccccc12`, for which the melting point was in the range of 194 to 197 °C.

`Nc1ccnn1-c1cccc(C(F)(F)F)c1`: the melting point was in the range of 77 to 79 °C.

Molecule `COc1cc2c(cc1Cl)CCN(C)CC2c1ccc(I)cc1` (centres undefined) gave a melting point of 130 to 132 °C.

In turn, `CN(C)CC(=O)N(C)c1ccc(OCC(=O)N[C@@H](CC(N)=O)C(=O)N[C@@H](Cc2ccccc2)[C@H](O)C(=O)N2CCC[C@H]2C(=O)NC(C)(C)C)cc1` gave a melting point of 129 to 135 °C.

The molecule `Cc1oc(-c2cc(C(F)(F)F)cc(C(F)(F)F)c2)nc1COc1cccc(CN(O)C(N)=O)c1` came in with a melting point of 150 to 151 °C.

Molecule `Cc1c(-c2ccccc2)c(N2CC(N(C)C)C2)c2oc(C(C)(C)C)nc2c1C#N` yielded a melting point of 211 to 212 °C.

Molecule `COCOCC(=O)C1CCC2C3CCC4=CC(=O)CCC4(C)C3CCC12C` (centres undefined) came in with a melting point of 195 °C.

On to `C#Cc1ccc(-c2ccccc2)c(C)c1`, for which the melting point was 57 to 59 °C.

For the molecule `Cc1cc2c(=O)c(-c3nnnn3C)cn(C)c2cc1C`, the melting point lay in the range of 245 to 246 °C.

Turning to `CC1(C)c2cc(O)ccc2OC1O` (centres undefined), the melting point lay in the range of 78 to 81 °C.

`COc1cc(Nc2nccc(-c3cccc(N)c3)n2)cc(OC)c1OC` yielded a melting point of 166 to 167 °C.

In the case of `CCOC1=NS(=O)(=O)c2cc(NC(=O)CC)ccc21`, the melting point lay in the range of 188 to 192 °C.

As for `C=C(CCC(C)C1CCC2C3=C(C(=O)CC21C)C1(C)CCC(=O)C(C)C1CC3)C(C)C(=O)OC` (centres undefined), the melting point lay in the range of 100 to 102 °C.

Turning to `COc1ccc(S(=O)(=O)N2C(=O)C(OC(=O)Oc3ccccc3)(c3ccccc3C(F)(F)F)c3cc(Cl)ccc32)c(OC)c1` (centres undefined), the melting point worked out at 191 °C.

`CCCCCCCCCCCCCCCCSCC(CO)NC(=O)OC` (centres undefined) returned a melting point of 55 to 56 °C.

`CCCCOc1cc(C=O)c([N+](=O)[O-])cc1OCc1ccccc1` returned a melting point of 94 °C.

With `BrCc1cccc(-c2cccc(CBr)n2)n1`, the melting point is 180 to 181 °C.

The molecule `CCCCCCCCCCCCCCCCOc1ccc(S(N)(=O)=O)cc1N` showed a melting point of 103 to 105 °C.

On to `Cc1cccc2[nH]c(=O)n(CCCN3CC=C(c4cccc(Cl)c4)CC3)c(=O)c12`, for which the melting point was in the range of 180 to 183 °C.

With `COC(=O)CCc1ccc(C(=O)CCl)cc1`, the melting point was found to be 90 °C.

The molecule `CC(C)CN(Cc1nnc(-c2ncn3c2CN(C)C(=O)c2c(Cl)cccc2-3)o1)CC(C)C` returned a melting point of 161 to 163 °C.

As to `CCOC(=O)NOC(=O)c1ccc(C(=O)ONC(=O)OCC)cc1`, the melting point was 130 °C.

`O=C1Cc2cc(Br)ccc2O1` showed a melting point of 147 to 148 °C.

Turning to `O=C(Nc1c(Cl)cc(-c2n[nH]c(=O)o2)c2c1OCCO2)OCc1ccccc1`, the melting point was determined as 230 °C.

`Fc1cccc(F)c1-c1ncc(-c2ccc(-c3ccc(OC(F)(F)F)cc3)cc2)nn1` gave a melting point of 225 to 230 °C.

The molecule `COc1nc(C)cnc1N(C(=O)OCC(C)C)S(=O)(=O)c1cccnc1-c1ccc([Si](C)(C)C)cc1` registered a melting point of 132 to 134 °C.

Regarding `CC(C)c1cc(C(=O)Nc2ccc(CC(=O)O)cc2)oc1C(C)C`, the melting point was in the range of 154 to 156 °C.

Consider `COc1ccc2c(c1)sc1c(C(=O)Nc3nnn[nH]3)cnc(=O)n12`, for which the melting point was in the range of 234 to 235 °C.

`CC1(C)C(=O)N(c2ccc([N+](=O)[O-])c(C(F)(F)F)c2)C(=O)N1CCCCCCCN1C(=O)N(c2ccc([N+](=O)[O-])c(C(F)(F)F)c2)C(=O)C1(C)C` showed a melting point of 137 to 138 °C.

`O=C(NCC(F)(F)F)c1ccc(C=NO)cc1`: the melting point fell in the range of 153 to 154 °C.

In the case of `CCOC(=O)/C=C/c1cn(Cc2ccc(OCc3ccccc3)cc2)nc1-c1ccccc1`, the melting point was in the range of 94 to 95 °C.

Values taken from a melting point compilation (Tetko et al.; mined from patent text by program, amines drawn as free bases though some values may be those of a salt).
